According to patent US20110081675A1, “Metabolic Biomarkers Of Drug-Induced Cardiotoxicity” (WISCONSIN ALUMNI RESEARCH FOUNDATION, priority 2009, published 2011):

Experiments:
human cardiomyocytes = test system: human cardiomyocytes
Procedure: The percentage of cell death, inherently and after drug treatment, was calculated by Trypan Blue staining (FIG. 2).
The doses for each compound were based upon published standards, equivalent to therapeutic circulating levels whenever possible (see Table 1).

[1] = test system: human cardiomyocytes (Celprogen 36044-15at); assay: LC-ESI-TOF-MS metabolomics of extracellular media of drug-treated human cardiomyocytes (Tables 2A-2C); format: cell-based; settings: 15uM paclitaxel
Procedure: Data for statistical analysis were extracted from chromatograms using the Agilent Mass Hunter software (Product No. G3297AA, Agilent Technologies, Inc., Santa Clara, Calif.); it will be understood that alternative statistical analysis methods can be used. Masses were binned together if they were within 10 ppm and eluted within a 2 minutes retention time window. A binned mass was considered to be the same molecule across different LC-ESI-TOF-MS analyses (referred to herein as an “exact mass,” which will be understood to be ±10 ppm). Binning of the data is required for statistical analysis and comparison of masses across the entire experiment. If multiple peaks with the same mass at the same retention time within a single sample were detected by Mass Hunter, they were averaged to assist data analysis. Masses lacking a natural isotopic distribution or with an absolute height of less than 1000 were removed from the data prior to analysis. It would be understood that the results from this assay provide relative values that are assessed according to annotated values within 10 ppm to provide an identity for the molecular weight detected. Thus, a mass shift within 10 ppm is considered consistent with determining the identity of a specific cellular metabolite previously annotated due to differences in ionization source and instrumentation, e.g. between different experiments or using different instruments.
As used herein, a mass was considered to be the same across LC/ESI-TOF-MS runs using a simple algorithm that first sorts the data by mass and retention time. […] If a series of measurements fit this definition it was considered to be from the same compound. If either the mass or the retention time varied by more than the limits listed above it was considered to be a different compound and given a new unique designation.
The data from the most reproducible mass features was log base 2 transformed and median centered prior to statistical analysis. […] To test the null hypothesis a one way permutation based t-test assuming a normal approximation of the conditional distribution was used and implement using the Conditional Inference Procedures in a Permutation Test Framework (Coin) library, a contributed package of programming code. Statistics tests were performed without replacement of missing values decrease the degrees of freedom rather than imputing missing values. […] False discovery rates (FDR) were controlled using the Q value estimator (Storey et al., 2003, Proc Natl Acad. Sci., 100:9440-5) and implemented using the qvalue library in R (Dabney et al., 2003, qvalue: Q-value estimation for false discovery rate control. R package version 1.10.0., www.CRAN.R-project.org).
The extracellular media from treated and untreated cells was processed as described in Cezar et al., (2007, Stem Cells Development 16: 869-882, this publication is incorporated by reference), for extraction of low molecular weight molecules (<3 kD) for metabolomics analysis. Extracellular low molecular weight molecule preparations were separated by liquid chromatography followed by electrospray ionization time of flight (LC-ESI-TOF-MS) mass spectrometry for ionization and detection of the full spectra of low molecular weight molecules present in each sample. More specifically, the samples were separated using the ESI_Luna_HILIC—95_t—06OACN—16 min method (HILIC chromatography). Statistical differences were inferred by subsequent bioinformatics and in silico mapping of deisotoped ESI-TOF-MS mass features as described below (also provided in Cezar et al. (2007, id.)).
Briefly, ionization (100 m/z-1500 m/z) was acquired on an Agilent 6520 Accurate-Mass Q-TOF in extended dynamic range and positive mode. Mass features were generated using two independent methods. First MassHunter Qualitative Analysis was used to generate mass features using the Molecular Feature Extraction algorithm (MFE).

CC(=O)O[C@H]1C(=O)[C@@]2(C)[C@H]([C@H](OC(=O)c3ccccc3)[C@]3(O)C[C@H](OC(=O)[C@H](O)[C@@H](NC(=O)c4ccccc4)c4ccccc4)C(C)=C1C3(C)C)[C@]1(OC(C)=O)CO[C@@H]1C[C@@H]2O [Paclitaxel]
cell death (in words) (human cardiomyocytes): significantly higher cell death | pacfold ([1]; feature cpdID 36, neutral mass 101.1204, RT 0.720145, Triethylamine or Hexylamine): 1.413 fold | pacfold ([1]; feature cpdID 8902, neutral mass 276.1256, RT 8.733378, no hit): 2.728 fold | pacfold ([1]; feature cpdID 11232, neutral mass 311.1029, RT 7.400847, p-Glucosyloxymandelonitrile or (S)-4-Hydroxymandelonitrile beta-D-glucoside): 4.25 fold | pacfold ([1]; feature cpdID 14190, neutral mass 356.253, RT 1.103957, HMDB04239, 13,14-dihydro PGE1 or Prostaglandin F1alpha): 12.08 fold | pacfold ([1]; feature cpdID 15112, neutral mass 372.0557, RT […], no hit): −1.026 fold | pacfold ([1]; feature cpdID 16504, neutral mass 393.0913, RT 7.25538, no hit): 1.219 fold | pacfold ([1]; feature cpdID 16939, neutral mass 400.2796, RT 1.108613, 7-Ketocholesterol): 11.76 fold | pacfold ([1]; feature cpdID 17096, neutral mass 403.1776, RT 6.2306, no hit): −2.028 fold | pacfold ([1]; feature cpdID 19500, neutral mass 444.3034, RT 1.106333, […]-Dihydroxyvitamin D3-26,23-lactone): 17.08 fold | pacfold ([1]; feature cpdID 19704, neutral mass 448.1344, RT 7.184483, no hit): 2.694 fold | pacfold ([1]; feature cpdID 21926, neutral mass 488.3323, RT 1.106573, no hit): 8.467 fold | pacfold ([1]; feature cpdID 23129, neutral mass 515.181, RT 10.44297, no hit): 1.263 fold | pacfold ([1]; feature cpdID 23163, neutral mass 516.1241, RT 7.217222, Formononetin 7-O-glucoside-6″-O-malonate, Isochlorogenic acid b or 13-Dicaffeoylquinic acid): 2.288 fold | pacfold ([1]; feature cpdID 24142, neutral mass 538.2779, RT 0.783395, no hit): 1.807 fold | pacfold ([1]; feature cpdID 25445, neutral mass 572.1055, RT 7.089848, no hit): 1.259 fold | pacfold ([1]; feature cpdID 25601, neutral mass 576.3861, RT 1.10751, 3-Hexaprenyl-4-hydroxy-5-methoxybenzoic acid): 5.623 fold | pacfold ([1]; feature cpdID 27363, neutral mass 620.4117, RT 1.108317, no hit): 3.53 fold | pacfold ([1]; feature cpdID 28720, neutral mass 661.1924, RT 6.495524, no hit): 1.205 fold | pacfold ([1]; feature cpdID 29101, neutral mass 672.1828, RT 6.528464, no hit): 2.408 fold | pacfold ([1]; feature cpdID 29124, neutral mass 672.6836, RT 6.559082, no hit): 1.432 fold | pacfold ([1]; feature cpdID 29227, neutral mass 676.1781, RT 1.298314, no hit): −1.322 fold | pacfold ([1]; feature cpdID 31637, neutral mass 744.1091, RT 1.26415, no hit): −1.129 fold | pacfold ([1]; feature cpdID 37922, neutral mass 932.7613, RT 6.562271, no hit): 1.506 fold | pacfold ([1]; feature cpdID 40510, neutral mass 1040.322, RT 6.499979, no hit): 1.465 fold | pacfold ([1]; feature cpdID 42137, neutral mass 1122.172, RT 1.256606, no hit): −2.322 fold | pacfold ([1]; feature cpdID 45209, neutral mass 1300.402, RT 6.501484, no hit): 1.771 fold | pacfold ([1]; feature cpdID 45486, neutral mass 1322.385, RT 6.518707, no hit): 1.836 fold
